Measured values: patent US5629309A, “2-substituted indane-2-mercaptoacetylamide disulfide derivatives useful as inhibitors of enkephalinase and ACE” (Merrell Pharmaceuticals Inc., priority 1995, dated 1997)

Biological target: T1, ACE, rat kidney preparations (Rattus norvegicus, UniProt P47820)
T1 construct: either compound- or vehicle-dosed rat kidney preparations; from tissue; host or cells: kidney of male Sprague-Dawley rats
T1 sequence (P47820 36-1313): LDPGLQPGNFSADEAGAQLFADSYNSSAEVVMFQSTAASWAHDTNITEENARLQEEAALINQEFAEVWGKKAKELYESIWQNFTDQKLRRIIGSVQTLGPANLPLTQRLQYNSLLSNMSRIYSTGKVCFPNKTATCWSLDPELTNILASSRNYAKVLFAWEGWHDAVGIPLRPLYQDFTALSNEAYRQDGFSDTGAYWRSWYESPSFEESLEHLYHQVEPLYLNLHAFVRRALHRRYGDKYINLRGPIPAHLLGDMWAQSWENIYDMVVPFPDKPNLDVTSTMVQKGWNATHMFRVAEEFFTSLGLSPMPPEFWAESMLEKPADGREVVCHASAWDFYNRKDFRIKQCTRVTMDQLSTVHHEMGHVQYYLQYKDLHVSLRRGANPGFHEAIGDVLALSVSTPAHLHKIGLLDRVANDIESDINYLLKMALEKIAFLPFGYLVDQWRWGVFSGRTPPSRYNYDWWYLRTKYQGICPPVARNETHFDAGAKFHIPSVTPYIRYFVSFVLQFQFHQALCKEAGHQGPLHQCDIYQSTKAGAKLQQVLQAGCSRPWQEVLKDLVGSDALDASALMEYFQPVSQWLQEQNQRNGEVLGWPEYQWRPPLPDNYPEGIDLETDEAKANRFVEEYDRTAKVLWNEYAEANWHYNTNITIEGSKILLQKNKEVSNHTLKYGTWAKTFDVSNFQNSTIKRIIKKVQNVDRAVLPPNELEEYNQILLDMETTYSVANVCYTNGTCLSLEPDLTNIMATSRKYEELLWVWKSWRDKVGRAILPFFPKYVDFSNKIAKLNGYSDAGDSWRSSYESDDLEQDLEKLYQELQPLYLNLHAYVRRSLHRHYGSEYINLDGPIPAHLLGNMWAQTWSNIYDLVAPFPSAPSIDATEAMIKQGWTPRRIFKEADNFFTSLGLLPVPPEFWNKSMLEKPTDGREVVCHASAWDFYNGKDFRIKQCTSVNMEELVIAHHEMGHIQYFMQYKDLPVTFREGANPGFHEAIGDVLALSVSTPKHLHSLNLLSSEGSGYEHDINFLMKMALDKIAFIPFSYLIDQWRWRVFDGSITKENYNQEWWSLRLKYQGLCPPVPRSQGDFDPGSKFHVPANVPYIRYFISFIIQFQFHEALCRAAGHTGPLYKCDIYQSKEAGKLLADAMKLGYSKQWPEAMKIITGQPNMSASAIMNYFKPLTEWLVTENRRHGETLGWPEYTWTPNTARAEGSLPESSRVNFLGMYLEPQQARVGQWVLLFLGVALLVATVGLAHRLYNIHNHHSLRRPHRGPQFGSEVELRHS
Test: Radiometric ACE assay with tritiated hippuryl-glycyl-glycine, rat kidney preparations
Format: biochemical
Conditions: 1 μM enalaprilat; compound- or vehicle-dosed rat kidney preparations

inhibition of radioactive product formation: Complete inhibition
SMILES: C[C@H](N[C@@H](CCc1ccccc1)C(=O)O)C(=O)N1CCC[C@H]1C(=O)O [enalaprilat]
